Assay results: ChEMBL document CHEMBL1201862, “PubChem BioAssay data set” (2004)
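48-hour exposure; five concentrations; linearly interpolated endpoints. GI50 = concentration required for 50% inhibition of growth.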 Calls of active or inactive are those of the source. No stated cut-off is given here; in the data, active = GI50 up to about 1.1 µM and inactive = higher.

Key:
Assay in all cases: DTP human tumour cell line panel, 48 h
[1] = system: U-251
[2] = system: NCI-H460
[3] = system: NCI-H23
[4] = system: 786-0
[5] = system: CAKI-1
[6] = system: SN12C
[7] = system: HCT-15
[8] = system: UACC-257
[9] = system: UO-31
[10] = system: MDA-N
[11] = system: TK-10
[12] = system: A498
[13] = system: SK-MEL-2
[14] = system: T47D
[15] = system: HCC 2998
[16] = system: MCF7
[17] = system: SW-620
[18] = system: ACHN
[19] = system: SK-MEL-28
[20] = system: PC-3
[21] = system: SK-MEL-5
[22] = system: SK-OV-3
[23] = system: M14
[24] = system: MDA-MB-435
[25] = system: IGROV-1
[26] = system: OVCAR-8
[27] = system: K562
[28] = system: DU-145
[29] = system: COLO 205
[30] = system: UACC-62
[31] = system: HOP-92
[32] = system: EKVX
[33] = system: KM12
[34] = system: A549
[35] = system: BT-549
[36] = system: HCT-116
[37] = system: MOLT-4
[38] = system: SF-295
[39] = system: HOP-62
[40] = system: OVCAR-5
[41] = system: HL-60
[42] = system: SNB-75
[43] = system: LOX IMVI
[44] = system: CCRF-CEM
[45] = system: NCI-H226
[46] = system: RXF 393
[47] = system: RPMI-8226
[48] = system: SNB-19
[49] = system: OVCAR-3
[50] = system: SR
[51] = system: OVCAR-4
[52] = system: NCI/ADR-RES

**Q.** What does the source list for `COc1ccc2nc3n(c2c1)C(c1c(Cl)cccc1Cl)SC3` (configuration not stated)?
**A.** GI50 [1]: > 100 µM (inactive); GI50 [2]: > 100 µM (inactive); GI50 [3]: > 100 µM (inactive); GI50 [4]: > 100 µM (inactive); GI50 [5]: > 100 µM (inactive); GI50 [6]: > 100 µM (inactive); GI50 [7]: > 100 µM; GI50 [8]: > 100 µM (inactive); GI50 [9]: > 100 µM (inactive); GI50 [10]: 87.9 µM (inactive); GI50 [11]: > 100 µM (inactive); GI50 [12]: > 100 µM (inactive); GI50 [13]: > 100 µM (inactive); GI50 [14]: > 100 µM (inactive); GI50 [15]: > 100 µM (inactive); GI50 [16]: > 100 µM (inactive); GI50 [17]: > 100 µM (inactive); GI50 [18]: > 100 µM (inactive); GI50 [19]: > 100 µM (inactive); GI50 [20]: > 100 µM (inactive); GI50 [21]: > 100 µM (inactive); GI50 [22]: > 100 µM (inactive); GI50 [23]: > 100 µM (inactive); GI50 [24]: > 100 µM (inactive); GI50 [25]: > 100 µM (inactive); GI50 [26]: > 100 µM (inactive); GI50 [27]: > 100 µM (inactive); GI50 [28]: > 100 µM (inactive); GI50 [29]: > 100 µM (inactive); GI50 [30]: > 100 µM (inactive); GI50 [31]: > 100 µM (inactive); GI50 [32]: > 100 µM (inactive); GI50 [33]: > 100 µM (inactive); GI50 [34]: > 100 µM (inactive); GI50 [35]: > 100 µM (inactive); GI50 [36]: > 100 µM (inactive); GI50 [37]: > 100 µM (inactive); GI50 [38]: > 100 µM (inactive); GI50 [39]: 59.7 µM (inactive); GI50 [40]: > 100 µM (inactive); GI50 [41]: > 100 µM (inactive); GI50 [42]: > 100 µM (inactive); GI50 [43]: > 100 µM (inactive); GI50 [44]: > 100 µM (inactive); GI50 [45]: > 100 µM (inactive); GI50 [46]: > 100 µM (inactive); GI50 [47]: > 100 µM (inactive); GI50 [48]: > 100 µM (inactive); GI50 [49]: > 100 µM (inactive); GI50 [50]: > 100 µM (inactive); GI50 [51]: 24.7 µM (inactive); GI50 [52]: > 100 µM (inactive)
